Reference: ChEMBL document CHEMBL5442219

Tests used:
Settings in all cases: Compound concentration 10 µM
[1] = molecular target: T1, Alpha-2C adrenergic receptor (Homo sapiens) (UniProt P18825)
T1 sequence (whole entry): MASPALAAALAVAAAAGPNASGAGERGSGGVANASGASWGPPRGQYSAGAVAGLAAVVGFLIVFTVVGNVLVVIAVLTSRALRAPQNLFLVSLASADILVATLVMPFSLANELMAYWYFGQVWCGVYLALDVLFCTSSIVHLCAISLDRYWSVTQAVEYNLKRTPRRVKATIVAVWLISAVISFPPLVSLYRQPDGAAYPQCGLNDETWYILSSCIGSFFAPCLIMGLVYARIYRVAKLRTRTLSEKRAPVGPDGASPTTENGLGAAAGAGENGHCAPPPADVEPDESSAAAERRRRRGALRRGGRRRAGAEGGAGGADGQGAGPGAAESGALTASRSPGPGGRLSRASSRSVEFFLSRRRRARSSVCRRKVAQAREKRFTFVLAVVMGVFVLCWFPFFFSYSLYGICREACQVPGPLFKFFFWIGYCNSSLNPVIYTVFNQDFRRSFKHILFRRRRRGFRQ
Description: PDSP Primary Binding target: ADRA2C - Compounds are tested at 10 uM concentration, plate are incubated at room temperature in the dark for 90 minutes. Reaction are stopped by vacuum filtration onto 0.3% polyethyleneimine soaked filter mats using Filtermate harvester. Scintilation cocktail is then melted onto microwave-dried filters on a hot plate and the radio activity is counted in Microbia counter.

[2] = molecular target: Beta-1 adrenergic receptor (Homo sapiens) (UniProt P08588)
Sequence of Beta-1 adrenergic receptor (Homo sapiens) (P08588 whole entry, looked up): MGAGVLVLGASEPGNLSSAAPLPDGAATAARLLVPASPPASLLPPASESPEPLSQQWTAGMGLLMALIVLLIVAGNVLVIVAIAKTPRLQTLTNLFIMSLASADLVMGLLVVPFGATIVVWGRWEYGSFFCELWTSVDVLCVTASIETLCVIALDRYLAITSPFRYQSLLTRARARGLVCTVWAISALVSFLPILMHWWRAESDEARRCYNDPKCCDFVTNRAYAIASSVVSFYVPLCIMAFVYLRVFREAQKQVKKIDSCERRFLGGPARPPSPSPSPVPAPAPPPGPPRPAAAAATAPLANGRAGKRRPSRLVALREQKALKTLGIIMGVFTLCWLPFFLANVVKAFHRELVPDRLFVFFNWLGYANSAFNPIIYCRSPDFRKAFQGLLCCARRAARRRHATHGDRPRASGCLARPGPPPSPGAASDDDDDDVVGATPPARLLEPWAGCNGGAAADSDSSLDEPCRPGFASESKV
Description: PDSP Primary Binding target: ADRB1 - Compounds are tested at 10 uM concentration, plate are incubated at room temperature in the dark for 90 minutes. Reaction are stopped by vacuum filtration onto 0.3% polyethyleneimine soaked filter mats using Filtermate harvester. Scintilation cocktail is then melted onto microwave-dried filters on a hot plate and the radio activity is counted in Microbia counter.

[3] = molecular target: Beta-2 adrenergic receptor (Homo sapiens) (UniProt P07550)
Sequence of Beta-2 adrenergic receptor (Homo sapiens) (P07550 whole entry, looked up): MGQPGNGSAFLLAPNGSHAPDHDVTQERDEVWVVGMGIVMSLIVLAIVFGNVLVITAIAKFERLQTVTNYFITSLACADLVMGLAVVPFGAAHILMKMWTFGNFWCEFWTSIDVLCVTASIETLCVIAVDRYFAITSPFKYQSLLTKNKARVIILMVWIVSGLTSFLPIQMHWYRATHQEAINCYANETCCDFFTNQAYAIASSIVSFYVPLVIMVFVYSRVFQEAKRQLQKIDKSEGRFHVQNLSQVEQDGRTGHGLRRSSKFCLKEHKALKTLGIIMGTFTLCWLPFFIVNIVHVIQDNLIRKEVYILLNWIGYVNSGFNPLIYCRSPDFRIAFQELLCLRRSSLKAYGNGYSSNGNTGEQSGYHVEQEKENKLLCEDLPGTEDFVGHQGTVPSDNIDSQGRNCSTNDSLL
Description: PDSP Primary Binding target: ADRB2 - Compounds are tested at 10 uM concentration, plate are incubated at room temperature in the dark for 90 minutes. Reaction are stopped by vacuum filtration onto 0.3% polyethyleneimine soaked filter mats using Filtermate harvester. Scintilation cocktail is then melted onto microwave-dried filters on a hot plate and the radio activity is counted in Microbia counter.

[4] = molecular target: T2, Muscarinic acetylcholine receptor M1 (Homo sapiens) (UniProt P11229)
T2 sequence (whole entry): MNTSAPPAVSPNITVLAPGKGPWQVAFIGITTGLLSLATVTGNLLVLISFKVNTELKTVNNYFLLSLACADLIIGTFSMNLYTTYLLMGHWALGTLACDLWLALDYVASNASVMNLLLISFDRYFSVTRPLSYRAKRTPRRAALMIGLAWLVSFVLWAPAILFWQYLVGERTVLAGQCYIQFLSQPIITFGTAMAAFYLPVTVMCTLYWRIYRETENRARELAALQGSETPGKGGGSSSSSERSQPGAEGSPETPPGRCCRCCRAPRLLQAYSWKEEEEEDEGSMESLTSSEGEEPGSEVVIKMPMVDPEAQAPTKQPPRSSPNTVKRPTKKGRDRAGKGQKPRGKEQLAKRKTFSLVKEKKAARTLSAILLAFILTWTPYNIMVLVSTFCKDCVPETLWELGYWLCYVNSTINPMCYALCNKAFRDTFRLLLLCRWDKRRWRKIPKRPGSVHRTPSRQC
Description: PDSP Primary Binding target: CHRM1 - Compounds are tested at 10 uM concentration, plate are incubated at room temperature in the dark for 90 minutes. Reaction are stopped by vacuum filtration onto 0.3% polyethyleneimine soaked filter mats using Filtermate harvester. Scintilation cocktail is then melted onto microwave-dried filters on a hot plate and the radio activity is counted in Microbia counter.

[5] = molecular target: T3, Muscarinic acetylcholine receptor M4 (Homo sapiens) (UniProt P08173)
T3 sequence (whole entry): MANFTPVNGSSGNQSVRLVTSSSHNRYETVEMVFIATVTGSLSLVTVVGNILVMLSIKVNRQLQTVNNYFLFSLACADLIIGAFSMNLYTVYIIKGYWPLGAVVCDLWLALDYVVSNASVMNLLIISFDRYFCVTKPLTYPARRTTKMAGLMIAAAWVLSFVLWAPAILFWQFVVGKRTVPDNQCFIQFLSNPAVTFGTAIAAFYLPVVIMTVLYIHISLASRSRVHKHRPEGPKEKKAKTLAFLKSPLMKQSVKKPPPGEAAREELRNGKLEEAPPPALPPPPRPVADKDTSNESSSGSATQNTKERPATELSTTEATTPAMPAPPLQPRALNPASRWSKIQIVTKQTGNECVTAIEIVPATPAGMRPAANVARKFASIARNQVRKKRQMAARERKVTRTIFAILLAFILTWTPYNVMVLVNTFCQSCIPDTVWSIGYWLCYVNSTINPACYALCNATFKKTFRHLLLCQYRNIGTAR
Description: PDSP Primary Binding target: CHRM4 - Compounds are tested at 10 uM concentration, plate are incubated at room temperature in the dark for 90 minutes. Reaction are stopped by vacuum filtration onto 0.3% polyethyleneimine soaked filter mats using Filtermate harvester. Scintilation cocktail is then melted onto microwave-dried filters on a hot plate and the radio activity is counted in Microbia counter.

[6] = molecular target: D(1A) dopamine receptor (Homo sapiens) (UniProt P21728)
Sequence of D(1A) dopamine receptor (Homo sapiens) (P21728 whole entry): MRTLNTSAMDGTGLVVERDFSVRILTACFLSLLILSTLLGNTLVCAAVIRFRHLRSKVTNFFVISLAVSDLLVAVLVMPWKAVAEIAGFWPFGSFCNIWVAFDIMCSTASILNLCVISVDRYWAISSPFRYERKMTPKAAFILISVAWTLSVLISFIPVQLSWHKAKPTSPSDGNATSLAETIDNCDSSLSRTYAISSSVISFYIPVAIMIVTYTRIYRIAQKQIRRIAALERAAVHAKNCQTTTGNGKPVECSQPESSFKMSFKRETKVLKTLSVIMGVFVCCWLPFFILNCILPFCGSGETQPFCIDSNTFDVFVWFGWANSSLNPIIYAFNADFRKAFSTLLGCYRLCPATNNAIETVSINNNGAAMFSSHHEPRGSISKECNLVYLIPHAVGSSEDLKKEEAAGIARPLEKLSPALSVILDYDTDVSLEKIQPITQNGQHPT
Description: PDSP Primary Binding target: DRD1 - Compounds are tested at 10 uM concentration, plate are incubated at room temperature in the dark for 90 minutes. Reaction are stopped by vacuum filtration onto 0.3% polyethyleneimine soaked filter mats using Filtermate harvester. Scintilation cocktail is then melted onto microwave-dried filters on a hot plate and the radio activity is counted in Microbia counter.

[7] = molecular target: D(1B) dopamine receptor (Homo sapiens) (UniProt P21918)
Description: PDSP Primary Binding target: DRD5 - Compounds are tested at 10 uM concentration, plate are incubated at room temperature in the dark for 90 minutes. Reaction are stopped by vacuum filtration onto 0.3% polyethyleneimine soaked filter mats using Filtermate harvester. Scintilation cocktail is then melted onto microwave-dried filters on a hot plate and the radio activity is counted in Microbia counter.

[8] = molecular target: 5-hydroxytryptamine receptor 1D (Homo sapiens) (UniProt P28221)
Sequence of 5-hydroxytryptamine receptor 1D (Homo sapiens) (P28221 whole entry): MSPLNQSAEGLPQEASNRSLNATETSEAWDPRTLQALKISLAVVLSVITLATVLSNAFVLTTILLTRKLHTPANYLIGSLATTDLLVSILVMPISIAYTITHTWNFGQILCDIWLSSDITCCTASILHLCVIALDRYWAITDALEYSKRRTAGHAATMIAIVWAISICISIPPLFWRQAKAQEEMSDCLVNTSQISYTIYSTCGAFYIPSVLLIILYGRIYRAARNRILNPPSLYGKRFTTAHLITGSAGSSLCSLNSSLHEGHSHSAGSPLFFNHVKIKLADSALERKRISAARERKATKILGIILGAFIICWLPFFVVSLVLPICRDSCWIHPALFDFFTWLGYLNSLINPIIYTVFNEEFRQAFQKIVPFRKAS
Description: PDSP Primary Binding target: HTR1D - Compounds are tested at 10 uM concentration, plate are incubated at room temperature in the dark for 90 minutes. Reaction are stopped by vacuum filtration onto 0.3% polyethyleneimine soaked filter mats using Filtermate harvester. Scintilation cocktail is then melted onto microwave-dried filters on a hot plate and the radio activity is counted in Microbia counter.

[9] = molecular target: 5-hydroxytryptamine receptor 2A (Homo sapiens) (UniProt P28223)
Sequence of 5-hydroxytryptamine receptor 2A (Homo sapiens) (P28223 whole entry): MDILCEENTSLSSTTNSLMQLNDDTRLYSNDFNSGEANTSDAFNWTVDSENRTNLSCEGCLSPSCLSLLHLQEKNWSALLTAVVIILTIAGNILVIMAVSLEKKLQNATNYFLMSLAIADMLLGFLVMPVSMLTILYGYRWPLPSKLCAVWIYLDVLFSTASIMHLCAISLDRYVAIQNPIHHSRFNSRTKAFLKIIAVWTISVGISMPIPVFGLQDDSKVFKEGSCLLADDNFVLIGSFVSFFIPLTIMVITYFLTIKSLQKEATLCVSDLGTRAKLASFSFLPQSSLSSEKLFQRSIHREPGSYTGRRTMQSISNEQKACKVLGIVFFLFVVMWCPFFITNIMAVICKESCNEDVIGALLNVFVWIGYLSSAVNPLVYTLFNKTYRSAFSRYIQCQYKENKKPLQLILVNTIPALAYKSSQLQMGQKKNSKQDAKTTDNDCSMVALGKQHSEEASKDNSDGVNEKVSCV
Description: PDSP Primary Binding target: HTR2A - Compounds are tested at 10 uM concentration, plate are incubated at room temperature in the dark for 90 minutes. Reaction are stopped by vacuum filtration onto 0.3% polyethyleneimine soaked filter mats using Filtermate harvester. Scintilation cocktail is then melted onto microwave-dried filters on a hot plate and the radio activity is counted in Microbia counter.

[10] = molecular target: 5-hydroxytryptamine receptor 6 (Homo sapiens) (UniProt P50406)
Description: PDSP Primary Binding target: HTR6 - Compounds are tested at 10 uM concentration, plate are incubated at room temperature in the dark for 90 minutes. Reaction are stopped by vacuum filtration onto 0.3% polyethyleneimine soaked filter mats using Filtermate harvester. Scintilation cocktail is then melted onto microwave-dried filters on a hot plate and the radio activity is counted in Microbia counter.

[11] = molecular target: 5-hydroxytryptamine receptor 7 (Homo sapiens) (UniProt P34969)
Description: PDSP Primary Binding target: HTR7 - Compounds are tested at 10 uM concentration, plate are incubated at room temperature in the dark for 90 minutes. Reaction are stopped by vacuum filtration onto 0.3% polyethyleneimine soaked filter mats using Filtermate harvester. Scintilation cocktail is then melted onto microwave-dried filters on a hot plate and the radio activity is counted in Microbia counter.

[12] = molecular target: Delta-type opioid receptor (Homo sapiens) (UniProt P41143)
Sequence of Delta-type opioid receptor (Homo sapiens) (P41143 whole entry): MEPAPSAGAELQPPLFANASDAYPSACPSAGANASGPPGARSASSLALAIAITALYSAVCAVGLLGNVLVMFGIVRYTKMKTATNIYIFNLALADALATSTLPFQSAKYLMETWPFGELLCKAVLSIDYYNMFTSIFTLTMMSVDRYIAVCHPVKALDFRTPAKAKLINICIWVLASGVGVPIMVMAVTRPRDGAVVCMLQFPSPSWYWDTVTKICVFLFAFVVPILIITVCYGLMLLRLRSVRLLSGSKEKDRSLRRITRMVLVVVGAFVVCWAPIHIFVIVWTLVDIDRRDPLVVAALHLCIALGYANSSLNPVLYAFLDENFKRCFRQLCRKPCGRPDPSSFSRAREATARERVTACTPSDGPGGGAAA
Description: PDSP Primary Binding target: OPRD1 - Compounds are tested at 10 uM concentration, plate are incubated at room temperature in the dark for 90 minutes. Reaction are stopped by vacuum filtration onto 0.3% polyethyleneimine soaked filter mats using Filtermate harvester. Scintilation cocktail is then melted onto microwave-dried filters on a hot plate and the radio activity is counted in Microbia counter.

[13] = molecular target: Mu-type opioid receptor (Homo sapiens) (UniProt P35372)
Sequence of Mu-type opioid receptor (Homo sapiens) (P35372 whole entry): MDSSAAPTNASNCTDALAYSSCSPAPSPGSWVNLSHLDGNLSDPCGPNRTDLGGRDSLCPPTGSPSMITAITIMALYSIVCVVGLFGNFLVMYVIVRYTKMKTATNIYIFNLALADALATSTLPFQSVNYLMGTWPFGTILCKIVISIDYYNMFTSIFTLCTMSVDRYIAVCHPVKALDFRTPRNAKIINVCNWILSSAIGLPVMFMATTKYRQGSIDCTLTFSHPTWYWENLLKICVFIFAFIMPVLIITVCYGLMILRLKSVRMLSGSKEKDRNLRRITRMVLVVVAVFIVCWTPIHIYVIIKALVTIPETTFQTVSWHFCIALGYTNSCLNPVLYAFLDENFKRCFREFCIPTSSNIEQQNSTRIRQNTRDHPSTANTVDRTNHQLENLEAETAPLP
Description: PDSP Primary Binding target: OPRM1 - Compounds are tested at 10 uM concentration, plate are incubated at room temperature in the dark for 90 minutes. Reaction are stopped by vacuum filtration onto 0.3% polyethyleneimine soaked filter mats using Filtermate harvester. Scintilation cocktail is then melted onto microwave-dried filters on a hot plate and the radio activity is counted in Microbia counter.

[14] = molecular target: Sodium-dependent dopamine transporter (Homo sapiens) (UniProt Q01959)
Sequence of Sodium-dependent dopamine transporter (Homo sapiens) (Q01959 whole entry): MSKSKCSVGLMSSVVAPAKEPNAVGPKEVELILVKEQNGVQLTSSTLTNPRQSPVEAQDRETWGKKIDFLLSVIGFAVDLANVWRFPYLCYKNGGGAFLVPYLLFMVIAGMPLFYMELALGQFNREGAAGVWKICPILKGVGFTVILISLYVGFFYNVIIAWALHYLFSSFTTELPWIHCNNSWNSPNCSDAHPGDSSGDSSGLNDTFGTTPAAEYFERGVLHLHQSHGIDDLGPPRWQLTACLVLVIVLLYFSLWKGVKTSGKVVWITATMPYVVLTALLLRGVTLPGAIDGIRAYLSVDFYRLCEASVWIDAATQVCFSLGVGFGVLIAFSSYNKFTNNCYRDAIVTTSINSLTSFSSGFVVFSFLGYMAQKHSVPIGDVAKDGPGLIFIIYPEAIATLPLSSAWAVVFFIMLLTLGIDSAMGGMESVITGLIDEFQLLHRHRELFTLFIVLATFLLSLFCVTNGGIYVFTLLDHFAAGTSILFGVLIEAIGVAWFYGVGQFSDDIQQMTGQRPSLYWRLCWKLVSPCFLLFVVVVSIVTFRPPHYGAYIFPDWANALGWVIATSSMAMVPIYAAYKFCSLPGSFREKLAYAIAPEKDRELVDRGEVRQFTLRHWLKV
Description: PDSP Primary Binding target: SLC6A3 - Compounds are tested at 10 uM concentration, plate are incubated at room temperature in the dark for 90 minutes. Reaction are stopped by vacuum filtration onto 0.3% polyethyleneimine soaked filter mats using Filtermate harvester. Scintilation cocktail is then melted onto microwave-dried filters on a hot plate and the radio activity is counted in Microbia counter.

[15] = molecular target: Sigma intracellular receptor 2 (Homo sapiens) (UniProt Q5BJF2)
Sequence of Sigma intracellular receptor 2 (Homo sapiens) (Q5BJF2 whole entry): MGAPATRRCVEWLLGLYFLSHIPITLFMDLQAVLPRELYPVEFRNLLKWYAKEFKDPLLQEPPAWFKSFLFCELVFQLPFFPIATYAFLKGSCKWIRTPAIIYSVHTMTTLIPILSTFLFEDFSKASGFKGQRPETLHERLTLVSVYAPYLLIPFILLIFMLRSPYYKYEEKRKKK
Description: PDSP Primary Binding target: TMEM97 - Compounds are tested at 10 uM concentration, plate are incubated at room temperature in the dark for 90 minutes. Reaction are stopped by vacuum filtration onto 0.3% polyethyleneimine soaked filter mats using Filtermate harvester. Scintilation cocktail is then melted onto microwave-dried filters on a hot plate and the radio activity is counted in Microbia counter.

[16] = molecular target: Beta-3 adrenergic receptor (Homo sapiens) (UniProt P13945)
Sequence of Beta-3 adrenergic receptor (Homo sapiens) (P13945 whole entry, looked up): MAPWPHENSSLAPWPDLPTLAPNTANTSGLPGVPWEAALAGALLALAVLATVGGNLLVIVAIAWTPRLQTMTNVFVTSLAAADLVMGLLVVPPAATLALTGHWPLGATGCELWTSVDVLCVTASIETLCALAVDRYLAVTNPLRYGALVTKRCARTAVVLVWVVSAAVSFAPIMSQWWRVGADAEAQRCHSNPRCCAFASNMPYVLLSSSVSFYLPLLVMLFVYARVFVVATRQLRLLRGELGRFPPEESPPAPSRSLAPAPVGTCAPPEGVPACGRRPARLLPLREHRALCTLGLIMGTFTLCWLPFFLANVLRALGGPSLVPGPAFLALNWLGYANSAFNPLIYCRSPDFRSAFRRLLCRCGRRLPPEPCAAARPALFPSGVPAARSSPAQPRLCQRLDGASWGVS
Description: PDSP Primary Binding target: ADRB3 - Compounds are tested at 10 uM concentration, plate are incubated at room temperature in the dark for 90 minutes. Reaction are stopped by vacuum filtration onto 0.3% polyethyleneimine soaked filter mats using Filtermate harvester. Scintilation cocktail is then melted onto microwave-dried filters on a hot plate and the radio activity is counted in Microbia counter.

[17] = molecular target: Histamine H2 receptor (Homo sapiens) (UniProt P25021)
Sequence of Histamine H2 receptor (Homo sapiens) (P25021 whole entry): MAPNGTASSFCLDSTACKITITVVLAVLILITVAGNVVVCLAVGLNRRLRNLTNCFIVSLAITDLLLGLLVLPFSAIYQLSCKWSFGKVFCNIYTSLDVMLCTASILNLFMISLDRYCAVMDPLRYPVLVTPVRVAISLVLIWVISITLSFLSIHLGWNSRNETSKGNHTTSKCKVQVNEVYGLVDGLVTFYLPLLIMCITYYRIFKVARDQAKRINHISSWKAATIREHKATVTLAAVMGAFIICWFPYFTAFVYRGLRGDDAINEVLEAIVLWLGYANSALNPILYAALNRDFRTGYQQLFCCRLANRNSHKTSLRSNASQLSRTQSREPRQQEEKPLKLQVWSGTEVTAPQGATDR
Description: PDSP Primary Binding target: HRH2 - Compounds are tested at 10 uM concentration, plate are incubated at room temperature in the dark for 90 minutes. Reaction are stopped by vacuum filtration onto 0.3% polyethyleneimine soaked filter mats using Filtermate harvester. Scintilation cocktail is then melted onto microwave-dried filters on a hot plate and the radio activity is counted in Microbia counter.

[18] = molecular target: T4, Alpha-1B adrenergic receptor (Homo sapiens) (UniProt P35368)
T4 sequence (whole entry): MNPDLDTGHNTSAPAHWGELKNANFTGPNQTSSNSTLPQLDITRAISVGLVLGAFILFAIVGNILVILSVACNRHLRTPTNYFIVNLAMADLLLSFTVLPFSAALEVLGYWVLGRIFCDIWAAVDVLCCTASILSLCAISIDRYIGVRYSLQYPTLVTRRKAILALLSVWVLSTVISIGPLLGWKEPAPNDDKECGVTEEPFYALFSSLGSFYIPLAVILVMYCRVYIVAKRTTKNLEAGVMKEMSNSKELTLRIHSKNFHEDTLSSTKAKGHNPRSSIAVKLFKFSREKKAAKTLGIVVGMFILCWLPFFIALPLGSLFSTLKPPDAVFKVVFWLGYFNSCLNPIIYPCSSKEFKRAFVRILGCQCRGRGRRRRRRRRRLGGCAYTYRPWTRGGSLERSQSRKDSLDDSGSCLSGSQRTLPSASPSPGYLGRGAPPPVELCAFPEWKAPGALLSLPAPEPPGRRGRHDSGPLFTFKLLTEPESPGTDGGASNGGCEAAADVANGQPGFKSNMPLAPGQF
Description: PDSP Primary Binding target: ADRA1B - Compounds are tested at 10 uM concentration, plate are incubated at room temperature in the dark for 90 minutes. Reaction are stopped by vacuum filtration onto 0.3% polyethyleneimine soaked filter mats using Filtermate harvester. Scintilation cocktail is then melted onto microwave-dried filters on a hot plate and the radio activity is counted in Microbia counter.

[19] = molecular target: Sodium-dependent noradrenaline transporter (Homo sapiens) (UniProt P23975)
Description: PDSP Primary Binding target: SLC6A2 - Compounds are tested at 10 uM concentration, plate are incubated at room temperature in the dark for 90 minutes. Reaction are stopped by vacuum filtration onto 0.3% polyethyleneimine soaked filter mats using Filtermate harvester. Scintilation cocktail is then melted onto microwave-dried filters on a hot plate and the radio activity is counted in Microbia counter.

| SMILES | inhibition [1] | inhibition [2] | inhibition [3] | inhibition [4] | inhibition [5] | inhibition [6] | inhibition [7] | inhibition [8] | inhibition [9] | inhibition [10] | inhibition [11] | inhibition [12] | inhibition [13] | inhibition [14] | inhibition [15] | inhibition [16] | inhibition [17] | inhibition [18] | inhibition [19] |
| --- | --- | --- | --- | --- | --- | --- | --- | --- | --- | --- | --- | --- | --- | --- | --- | --- | --- | --- | --- |
| CCCSc1nc(N[C@@H]2C[C@H]2c2ccc(F)c(F)c2)c2nnn([C@@H]3C[C@H](OCCO)[C@@H](O)[C@H]3O)c2n1 | 15.4% | 4.3% | 5.05% | 18.3% | -3.79% | 24% | 2.95% | 48.6% | 10.9% | 7.72% | 16.8% | 17.9% | -2.99% | 75.8% | 63.6% | 49.7% | 3.94% | – | – |
| CSc1ccc(C(=O)N[C@@H]2CCCC[C@@H]2NC(=O)CNC(=O)c2cc(C(F)(F)F)ccc2NC(=O)NC(C)C)cc1 | – | -9.46% | 6.71% | 28.4% | 6.91% | -8.17% | – | – | 9.73% | – | 2.72% | 4.07% | 28% | 28.2% | 18.9% | 1.5% | 28.4% | -0.4% | – |
| C/C(=N\NC(=O)[C@@H]1C(=O)NC[C@H]1c1ccccc1)c1cccc(Br)c1 | -7.78% | -3.09% | -2.57% | -1.51% | – | -9.99% | -9.13% | – | 62.6% | 7.94% | 8.23% | – | 50.1% | – | 4.05% | 3.81% | 20.4% | – | 11.2% |
| c1ccc(N2CCN(Cc3nc4ccccc4[nH]3)CC2)nc1 | 4.37% | 13.5% | – | 22.3% | -4.29% | – | -1.78% | – | 6.02% | -0.41% | 33.7% | -5.06% | 4.96% | 22.6% | 1.4% | 17.4% | 10.1% | – | – |
| COc1ccc(OC(F)(F)F)cc1CN[C@H]1CCCN[C@H]1c1ccccc1 | 9.77% | 1.65% | -1.91% | 13.7% | -2.31% | 4.84% | -8.91% | -4.51% | 64.8% | 23.8% | – | – | 41.3% | 57.6% | 90.5% | 6.31% | 42.3% | 2.37% | 22.6% |
| C[C@H](Cc1cc2c(c(C(N)=O)c1)N(CCCO)CC2)NCCOc1ccccc1OCC(F)(F)F | 82.5% | 31.1% | 99% | 20.8% | -8.65% | -5.84% | – | 90.2% | 36.2% | – | 83.6% | – | 38.8% | 35.5% | 17.6% | 11% | 34.6% | 81.6% | -2.22% |
